Assays:
Assay type in all cases: cell-based
β2 (trachea) = molecular target: T1, β2 (trachea) (Cavia porcellus, UniProt Q8K4Z4); experiment: inhibition of isoproterenol-induced relaxation in isolated guinea pig tracheal chains contracted with PGF2α (β2); conditions: read-out: pA2 values β2 (trachea) (converted)
T1 construct: isolated guinea pig tracheal chains; from tissue; host or cells: isolated guinea pig tracheal chains
Procedure: (§1) The in vitro β-adrenergic blocking properties of the novel compounds of this invention were evaluated in accordance with standard procedures. The interaction with the β1 -receptor was determined via inhibition of the positive chronotropic actions of isoproterenol in isolated guinea pig atrial preparations. β2 potency was determined by using isolated guinea pig tracheal chains contracted with PGF2@ and by measuring inhibition of isoproterenol-induced relaxation.

β1-receptor [1] = experiment: inhibition of the positive chronotropic actions of isoproterenol in isolated guinea pig atrial preparations (β1); conditions: β1 (atria) versus β2 (trachea), from pA2 values
Procedure: as §1

β1-receptor [2] = molecular target: T2, β1-receptor (Cavia porcellus, UniProt H0W3H1); experiment: as above; conditions: isolated guinea pig atria, isoproterenol chronotropic action; read-out: pA2 values β1 (atria) (converted)
T2 construct: isolated guinea pig atrial preparations; from tissue; host or cells: isolated guinea pig atria
T2 sequence (H0W3H1 1-470): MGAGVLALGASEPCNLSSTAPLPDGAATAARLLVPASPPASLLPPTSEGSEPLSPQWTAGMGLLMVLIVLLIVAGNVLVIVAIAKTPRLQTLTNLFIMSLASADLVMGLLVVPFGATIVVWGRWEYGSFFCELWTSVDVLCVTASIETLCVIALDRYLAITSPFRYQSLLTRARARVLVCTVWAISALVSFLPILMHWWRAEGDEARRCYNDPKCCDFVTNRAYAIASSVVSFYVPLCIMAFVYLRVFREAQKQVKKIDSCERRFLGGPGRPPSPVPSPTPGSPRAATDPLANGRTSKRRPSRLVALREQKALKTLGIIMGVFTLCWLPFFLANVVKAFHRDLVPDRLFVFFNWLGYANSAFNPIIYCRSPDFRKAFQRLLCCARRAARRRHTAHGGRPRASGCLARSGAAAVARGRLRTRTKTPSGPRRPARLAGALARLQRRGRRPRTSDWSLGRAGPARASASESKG
Procedure: as §1

T1 sequence (Q8K4Z4 whole entry): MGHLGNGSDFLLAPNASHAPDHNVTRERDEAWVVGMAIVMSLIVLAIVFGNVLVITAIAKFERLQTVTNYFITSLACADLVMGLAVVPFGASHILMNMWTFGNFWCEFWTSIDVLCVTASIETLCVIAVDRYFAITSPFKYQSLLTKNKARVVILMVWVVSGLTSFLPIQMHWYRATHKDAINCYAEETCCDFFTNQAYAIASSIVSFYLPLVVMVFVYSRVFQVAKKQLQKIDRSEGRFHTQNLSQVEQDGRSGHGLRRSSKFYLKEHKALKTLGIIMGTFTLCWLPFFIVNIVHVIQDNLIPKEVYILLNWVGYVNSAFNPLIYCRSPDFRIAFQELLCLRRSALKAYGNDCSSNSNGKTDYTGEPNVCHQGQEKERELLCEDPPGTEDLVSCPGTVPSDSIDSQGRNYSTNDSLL

Row | Kb (β2 (trachea)) | Kb (β1-receptor [2]) | SMILES | Cardioselectivity ratio (β1-receptor [1])
1 | 64.6 nM | 25.7 nM | N#Cc1ccccc1OCC(O)CNCCN1CCNCC1 (centres unmarked) | 2.5
2 | 89.1 nM | 15.5 nM | N#Cc1ccccc1OCC(O)CNCCN1CCOCC1 (centres unmarked) | 5.8
3 | 1120 nM | 43.7 nM | CN(C)CCNCC(O)COc1ccccc1C#N (centres unmarked) [N(CH3)2, 1-(2-cyanophenoxy)-3-[2-(dimethylamino)ethyl]-amino-2-propanol] | 
4 | 138 nM | 23.4 nM | N#Cc1ccccc1OCC(O)CNCCc1cccnc1 (centres unmarked) | 5.9
5 | 302 nM | 74.1 nM | N#Cc1ccccc1OCC(O)CNCCc1ccncc1 (centres unmarked) | 4.1
6 | 34700 nM | 34.7 nM | N#Cc1ccccc1OCC(O)CNCCc1ccccn1 (centres unmarked) | 1000

— patent publication US4788193A, “1-aryloxy-3-(substituted alkylamino)-2-propanols, pharmaceutical compositions and use” (Merck & Co., Inc., priority 1987, dated 1988)
